Source: the OPERA property sets (Mansouri et al. 2018)

conditions: not given

SMILES	boiling point [°C]	log10 vapour pressure (mmHg)	melting point [°C]	log10 Henry constant (atm·m³/mol)	log10 Koa	ready biodegradability	log10 Koc (L/kg)
O=C1CCCCN1	256	-2.36	39.5				
C[C@]12CC[C@@H]3c4ccc(OC(=O)c5ccccc5)cc4CC[C@H]3[C@@H]1CC[C@@H]2O			196				
COc1ccccc1OCCNCC(O)COc1cccc2[nH]c3ccccc3c12 (stereo not given)			114				
C[C@@H]1CC[C@H](O)C1	148						
O=C(O)c1cc(Cl)cc(Cl)c1O			220				
O=C1C(Br)=C(Br)C(=O)C(Br)=C1Br			293				
O=C1CCCCCCN1			36.5				
ClC(Cl)(Cl)C(Cl)(Cl)Cl		-0.678	187	-2.41	4.47	not readily biodegradable	
C1=CCNC1	90.5						
FCI	53.4						
CC(C)N(Cc1ccccc1)C(=O)C(C)(C)C		-3.18					
ClC1=C(Cl)C2(Cl)C3C(Cl)C(Cl)C(Cl)C3C1(Cl)C2(Cl)Cl (stereo not given)		-6.02			9.43		
O=C(OCC(=O)N1CCC(O)CC1)c1ccccc1			122				
Cc1cccc(-c2ccccc2C)c1	270						
CCCCCCCCCC(=O)OC(=O)CCCCCCCCC			24.7				
COc1ccc(-c2ccc(OC)cc2)cc1			175				
Nc1ccc(Nc2ccccc2)c2c1C(=O)c1ccccc1C2=O			192				
CCCCCCCCCCCCCCCCCC(C)=O			57				
C=CCOC(=O)CC	124						
CC(C)CC(Cl)Cl	130						
CCCCN1CCOCC1	214		-57.1				
CCCCCCCCCCCCCCCCCCOO			49.5				
CC1OC(C)OC(C)OC(C)O1 (stereo not given)						not readily biodegradable	2.38
O=c1oc2ccccc2c(O)c1Cc1c(O)c2ccccc2oc1=O			290				
O=S(=O)(Cl)c1c(F)c(F)c(F)c(F)c1F	210						
Cc1ncc([N+](=O)[O-])n1CC(C)O (stereo not given)			76				

SMILES	boiling point [°C]	log10 vapour pressure (mmHg)	melting point [°C]	log10 Henry constant (atm·m³/mol)	log10 Koa	ready biodegradability	log10 Koc (L/kg)
Cc1cc2ccccc2o1	198	-0.312					
CN(C)CCN(C)C	121		-55				
ClCc1cccc2ccccc12	292		32				
O=C1Nc2ccc(Cl)cc2C(c2ccccc2Cl)=NC1O (stereo not given)			167				
Brc1c(Br)c(Br)c(Br)c(Br)c1Br			326			not readily biodegradable	
O=C1C(=O)c2ccccc2C(Cl)=C1Cl			184				
OCc1ccc2c(c1)OCO2			58				
CCOC(=O)CC(SP(=S)(OC)OC)C(=O)OCC (stereo not given)		-5.47	2.8	-8.31		not readily biodegradable	2.36
Cn1ccc(=O)c2ccccc21			152				
ClCC=Cc1ccccc1			-19				
C=COCCOCCOC=C	198	-1.64					
CC1CCCCC1NC(=O)Nc1ccccc1 (stereo not given)		-8.4	136				2.31
CC(C)[C@H]1CC[C@]2(C)C[C@H](O)[C@]3(C)CC[C@]12O3			114				
COCC(O)CO (stereo not given)	220						
N#CN		-2.43	44				
O=C(O)c1ccc2ccccc2c1O			195				
O=C(O)Cc1cccc([N+](=O)[O-])c1			118				
CCCC(=O)CC	124	1.14	-55.5			not readily biodegradable	
COc1ccc2c(=O)c3ccccc3oc2c1CN1CCCCC1			160				
O=C(C1CC1)C1CC1	161						
CCCCCC(C)(C)O	156		-50.4				
O=C(O)COc1cc(Cl)c(Cl)cc1Cl			153				1.99
CCOc1ccc(N)cc1	254	-1.98	2.4			not readily biodegradable	
C[C@H]1CC[C@@H]2C[C@H]1C2(C)C			-53				
C	-162	5.67	-182		-0.38		
O=[N+]([O-])c1cc(C(F)(F)F)c(Cl)c([N+](=O)[O-])c1Nc1ncc(C(F)(F)F)cc1Cl			113				

SMILES	boiling point [°C]	log10 vapour pressure (mmHg)	melting point [°C]	log10 Henry constant (atm·m³/mol)	log10 Koa	ready biodegradability	log10 Koc (L/kg)
COP(=O)(OC)OC=C(Cl)Cl	234	-1.8	-60			readily biodegradable	1.67
COC(=O)[C@H]1[C@H]2C[C@@H]3c4[nH]c5ccccc5c4CCN3C[C@H]2C[C@@H](OC(=O)c2cc(OC)c(OC)c(OC)c2)[C@@H]1OC			230				
NS(=O)(=O)c1ccc(Cl)c(S(N)(=O)=O)c1			207				
Nc1ccc(Cl)c([N+](=O)[O-])c1			103				
Oc1c(Br)cc(Br)c(Br)c1Br			114				
CN(C)C=O	153	0.588	-60.4	-7.13	4.38	readily biodegradable	
c1ccc2ocnc2c1	182		31				
C=C(C)[C@H](C)O	114						
CCCCCC(=O)CCCCC	228	-1.3	14.5			readily biodegradable	
COc1cc([C@@H]2c3cc4c(cc3[C@H](O)[C@H]3COC(=O)[C@@H]23)OCO4)cc(OC)c1OC			206				
CCCC(C)C1(CC)C(=O)N=C(O)NC1=O (stereo not given)			130				
CCc1cccc2c3c([nH]c12)C(CC)(CC(=O)O)OCC3 (stereo not given)			146				
CC1=CCCCC1	106	1.49					
C1=CCSC1	122						
C=C(C(=O)O)c1ccccc1			106			readily biodegradable	
O=NN1CN2CN(C1)CN(N=O)C2			204			readily biodegradable	
Cc1cccc(C(=O)O)c1		-3.63	109			readily biodegradable	
O=C1CCO1	162		-33.4			readily biodegradable	
C=CCCCCC=C	116						
C[C@]12N[C@H](Cc3ccccc31)c1ccccc12			68.8				
Nn1cnnc1			82.5				
O=S(=O)(Cl)c1ccc2ccccc2c1			81				
Nc1ccc(-c2ccc(N)cc2Cl)c(Cl)c1			165				
CCCCCCCCCCCCCC(=O)CCCCCCCCCCCCC			77.5				
CN(C)C(CSC(N)=O)CSC(N)=O.Cl			180				
CCC(CC)c1ccccc1	188						

SMILES	boiling point [°C]	log10 vapour pressure (mmHg)	melting point [°C]	log10 Henry constant (atm·m³/mol)	log10 Koa	ready biodegradability	log10 Koc (L/kg)
Clc1ccc2cc(Cl)c(Cl)c(Cl)c2c1					8.35		
CCCCCOC	99						
O=C1c2ccccc2-c2ccc(Cl)cc21			126				
CC(Br)Br	108	1.41	-63				
O=C(O)COc1ccc(Cl)cc1			164				
COc1ccc([N+](=O)[O-])cc1N			118				
Nc1ncnc2c1ncn2[C@]1(CO)O[C@H](CO)[C@@H](O)[C@H]1O			212				
O=[N+]([O-])c1ccc(Nc2ccc(O)cc2)c([N+](=O)[O-])c1		-11.4	194				
O=C1C(O)=C(Cl)C(=O)c2ccccc21			216				
O=Cc1c(Cl)cccc1Cl			71.5			not readily biodegradable	
C[Si](C)(Cl)c1ccccc1		-0.14					
O=C(O)c1cc(=O)c2cccc(O)c2[nH]1			289				
c1cnc2cccnc2c1			75				
O=C(O)c1ccc(Br)cc1		-5	254				
Cc1cccc(N)c1	203	-0.519	-31.2	-5.78		not readily biodegradable	1.53
CC(C)C(C)CC(C)(C)C (stereo not given)	148	0.779					
Clc1cc2c(oc3cc(Cl)c(Cl)c(Cl)c32)c(Cl)c1Cl					10.8		
COCC(C)=O	116						
CC(C)(C)NCCO	176		44			not readily biodegradable	
NC1CCC(CC2CCC(N)CC2)CC1 (stereo not given)	320		15				
C=CCC#N	119	1.27	-87				
C=C1C(=O)O[C@@H]2C[C@@H](C)[C@@H]3C=CC(=O)[C@@]3(C)[C@@H](O)[C@H]12			168				
CCCN(CC)CC1COC2(CCC(C(C)(C)C)CC2)O1 (stereo not given)		-3.89					
CN1CC[C@]23c4c5ccc(OCCN6CCOCC6)c4O[C@H]2[C@@H](O)C=C[C@H]3[C@H]1C5			91				

same assay, conditions: fish

SMILES	log10 BCF	log10 biotransformation half-life (days)
ClC(Cl)(Cl)C(Cl)(Cl)Cl	2.71	0.76
Brc1c(Br)c(Br)c(Br)c(Br)c1Br	3	0.43
CCOC(=O)CC(SP(=S)(OC)OC)C(=O)OCC (stereo not given)	1.52	0.29
CCCCCCCCCCCCCOC(=O)CCCCC(=O)OCCCCCCCCCCCCC		-0.43
CCOc1ccc(N)cc1	1	-1.24
COP(=O)(OC)OC=C(Cl)Cl	-0.3	
CN(C)C=O	-0.1	
CCCCCC[Si](O)(CCCCCC)CCCCCC	2.7	0.04
Clc1cc2c(oc3cc(Cl)c(Cl)c(Cl)c32)c(Cl)c1Cl	3.94	1
